In patent publication US20230233569A1 (Revolution Medicines, Inc., priority 2020, published 2023):
Like-named read-outs stand apart in the source and are kept apart here.

How the values were obtained:
[1] = test system: Capan-1 (K-Ras G12V); experiment: CellTiter-Glo cell viability assay, 5-day treatment; assay type: cell-based; settings: Homo sapiens, CAPAN-1, 120 h, 5-day treatment; read-out: Capan-1 Cell Viability assay data (K-Ras G12V, IC50)
Method in brief: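 Five-day compound treatment of plated cells; luminescent read after ~30 min at RT. Percent-of-DMSO data fit to a four-parameter logistic model.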

[2] = target: KRAS G12D (Homo sapiens, UniProt P01116+P62937, G12D); experiment: Disruption of BRAF RBD interaction with Ras (FRET / MOA assay, with Cyclophilin A); assay type: biochemical
Method in brief: (§1)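 Compound-driven ternary complex formation between nucleotide-loaded K-Ras and Cyclophilin A was measured as loss of BRAF RBD binding. Compounds (10-point 3-fold series, top 30 μM final) were incubated 3 h at 25 °C, then anti-His Eu-W1024 (10 nM) and anti-GST allophycocyanin (50 nM) added for 1.5 h. IC50 was taken from the TR-FRET ratio decrease versus DMSO.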

[3] = target: KRAS G12S (Homo sapiens, UniProt P01116+P62937, G12S); experiment: as above; assay type: biochemical
Method in brief: as §1

[4] = target: KRAS WT (Homo sapiens, UniProt P01116+P62937); experiment: as above; assay type: biochemical
Method in brief: as §1

[5] = target: KRAS G12V (Homo sapiens, UniProt P01116+P62937, G12V); experiment: as above; assay type: biochemical
Method in brief: as §1

[6] = target: KRAS G12C (Homo sapiens, UniProt P01116+P62937, G12C); experiment: as above; assay type: biochemical
Method in brief: as §1

[7] = target: NRAS G12C (Homo sapiens, UniProt P01111+P62937, G12C); experiment: as above; assay type: biochemical
[8] = target: KRAS G13C (Homo sapiens, UniProt P01116+P62937, G13C); experiment: as above; assay type: biochemical
Method in brief: as §1

[9] = target: KRAS G13D (Homo sapiens, UniProt P01116+P62937, G13D); experiment: as above; assay type: biochemical
Method in brief: as §1

[10] = KRAS WT FRET data IC50, KRAS WT
[11] = KRAS G12V FRET data IC50, KRAS G12V
[12] = NRAS G12C FRET data IC50, NRAS G12C
[13] = KRAS G13D FRET data IC50, KRAS G13D
[14] = read-out: KRAS G12D FRET data, IC50
[15] = read-out: KRAS G12S FRET data, IC50
[16] = KRAS WT, read-out: KRAS WT FRET data IC50
[17] = KRAS G12V, read-out: KRAS G12V FRET data IC50
[18] = read-out: KRAS G12C FRET data, IC50
[19] = NRAS G12C, read-out: NRAS G12C FRET data IC50
[20] = read-out: KRAS G13C FRET data, IC50
[21] = KRAS G13D, read-out: KRAS G13D FRET data IC50

Chain of KRAS WT (P01116 1-169 isoform P01116-2 limits assumed): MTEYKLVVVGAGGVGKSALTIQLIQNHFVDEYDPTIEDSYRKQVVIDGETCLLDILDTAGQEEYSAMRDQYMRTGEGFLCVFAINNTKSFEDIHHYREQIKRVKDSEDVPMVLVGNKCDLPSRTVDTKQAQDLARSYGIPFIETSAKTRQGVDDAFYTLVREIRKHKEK
Chain of KRAS WT (P62937 whole entry): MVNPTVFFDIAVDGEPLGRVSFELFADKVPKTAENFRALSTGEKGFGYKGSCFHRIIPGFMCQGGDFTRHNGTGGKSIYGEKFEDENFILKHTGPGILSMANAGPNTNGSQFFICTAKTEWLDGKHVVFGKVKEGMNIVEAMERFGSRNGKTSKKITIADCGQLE
Chain of KRAS G13D (P01116 1-169 isoform P01116-2 G13D limits assumed): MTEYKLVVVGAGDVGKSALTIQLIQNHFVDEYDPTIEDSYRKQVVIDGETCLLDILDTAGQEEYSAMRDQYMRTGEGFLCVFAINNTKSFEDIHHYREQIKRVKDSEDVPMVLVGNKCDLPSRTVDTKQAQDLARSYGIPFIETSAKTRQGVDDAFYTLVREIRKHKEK
Chain of KRAS G13D (P62937 whole entry): as the sequence (P62937 whole entry) above
Chain of KRAS G12C (P01116 1-169 isoform P01116-2 G12C): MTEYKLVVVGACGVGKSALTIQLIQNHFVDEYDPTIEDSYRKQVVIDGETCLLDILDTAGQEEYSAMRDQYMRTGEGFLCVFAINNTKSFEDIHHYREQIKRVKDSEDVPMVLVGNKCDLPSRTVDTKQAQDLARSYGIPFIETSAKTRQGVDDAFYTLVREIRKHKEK
Chain of KRAS G12C (P62937 whole entry): as the sequence (P62937 whole entry) above
Chain of KRAS G12D (P01116 1-169 isoform P01116-2 G12D limits assumed): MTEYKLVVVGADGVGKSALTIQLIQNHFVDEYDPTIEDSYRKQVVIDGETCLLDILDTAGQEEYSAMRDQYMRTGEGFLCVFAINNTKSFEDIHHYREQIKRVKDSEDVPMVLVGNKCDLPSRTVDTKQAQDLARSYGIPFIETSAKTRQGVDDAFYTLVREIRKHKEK
Chain of KRAS G12D (P62937 whole entry): as the sequence (P62937 whole entry) above
Chain of NRAS G12C (P01111 whole entry G12C): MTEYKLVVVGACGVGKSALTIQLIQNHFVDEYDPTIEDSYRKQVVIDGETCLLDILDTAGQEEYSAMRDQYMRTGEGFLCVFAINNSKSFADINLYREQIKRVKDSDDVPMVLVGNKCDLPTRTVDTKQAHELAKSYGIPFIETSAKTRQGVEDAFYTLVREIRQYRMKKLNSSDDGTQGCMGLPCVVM
Chain of NRAS G12C (P62937 whole entry): as the sequence (P62937 whole entry) above
Chain of KRAS G12S (P01116 1-169 isoform P01116-2 G12S limits assumed): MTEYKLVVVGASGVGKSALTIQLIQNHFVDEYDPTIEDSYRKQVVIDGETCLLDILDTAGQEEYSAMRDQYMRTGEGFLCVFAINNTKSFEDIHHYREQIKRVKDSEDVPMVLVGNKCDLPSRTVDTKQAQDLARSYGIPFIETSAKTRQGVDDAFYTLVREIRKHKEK
Chain of KRAS G12S (P62937 whole entry): as the sequence (P62937 whole entry) above
Chain of KRAS G12V (P01116 1-169 isoform P01116-2 G12V limits assumed): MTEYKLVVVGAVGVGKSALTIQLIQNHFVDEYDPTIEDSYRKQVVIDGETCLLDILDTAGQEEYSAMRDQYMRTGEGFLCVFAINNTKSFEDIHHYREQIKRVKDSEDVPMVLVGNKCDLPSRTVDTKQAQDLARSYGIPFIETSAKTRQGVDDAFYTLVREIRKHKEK
Chain of KRAS G12V (P62937 whole entry): as the sequence (P62937 whole entry) above
Chain of KRAS G13C (P01116 1-169 isoform P01116-2 G13C): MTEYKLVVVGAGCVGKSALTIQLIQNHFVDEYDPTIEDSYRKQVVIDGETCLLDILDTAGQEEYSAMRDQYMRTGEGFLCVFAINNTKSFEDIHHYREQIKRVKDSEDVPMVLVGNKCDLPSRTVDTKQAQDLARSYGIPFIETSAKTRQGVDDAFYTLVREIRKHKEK
Chain of KRAS G13C (P62937 whole entry): as the sequence (P62937 whole entry) above

IC50 ([2]; KRAS G12D FRET data, IC50) [nM]	IC50 ([3]; KRAS G12S FRET data, IC50) [nM]	IC50 [4, 10] [nM]	IC50 [5, 11] [nM]	IC50 ([6]; KRAS G12C FRET data, IC50) [nM]	IC50 [7, 12] [nM]	IC50 ([8]; KRAS G13C FRET data, IC50) [nM]	IC50 [9, 13] [nM]	IC50 [2, 14] [nM]	IC50 [3, 15] [nM]	IC50 [4, 16] [nM]	IC50 [5, 17] [nM]	IC50 [6, 18] [nM]	IC50 [7, 19] [nM]	IC50 [8, 20] [nM]	IC50 [9, 21] [nM]	SMILES	IC50 [1] [nM]
100 to 1000	100 to 1000	100 to 1000	1000 to 10000	100 to 1000	100 to 1000	100 to 1000	100 to 1000									CCn1c(-c2cccnc2[C@H](C)OC)c2c3cc(ccc31)-c1cc(O)cc(c1)C[C@H](NC(=O)[C@H](C(C)C)N(C)C(=O)C1CCNCC1)C(=O)N1CCC[C@H](N1)C(=O)OCC(C)(C)C2 [Example A122]	> 10000
								1000 to 10000	1000 to 10000	1000 to 10000	1000 to 10000	1000 to 10000	1000 to 10000	1000 to 10000	1000 to 10000	CCn1c(-c2cccnc2[C@H](C)OC)c2c3cc(ccc31)-c1csc(n1)C[C@H](NC(=O)[C@H](C(C)C)N(C)C(=O)[C@H]1CCN(C(=O)C(C)(C)N(C)C)C1)C(=O)N1CCC[C@H](N1)C(=O)OCC(C)(C)C2 [Example A113]	1000 to 10000
								1000 to 10000	1000 to 10000	1000 to 10000	> 10000	1000 to 10000	1000 to 10000	100 to 1000	1000 to 10000	CCn1c(-c2cccnc2[C@H](C)OC)c2c3cc(ccc31)-c1cccc(c1)C[C@H](NC(=O)[C@H](C(C)C)N(C)C(=O)[C@H]1CCN(CCO)C1)C(=O)N1CCC[C@H](N1)C(=O)OCC(C)(C)C2 [Example A109]	> 10000
								1000 to 10000	1000 to 10000	1000 to 10000	1000 to 10000	1000 to 10000	1000 to 10000	1000 to 10000	1000 to 10000	CCn1c(-c2cccnc2[C@H](C)OC)c2c3cc(ccc31)-c1cccc(c1)C[C@H](NC(=O)[C@H](C(C)C)N(C)C(=O)[C@H]1CCN(C(=O)C(C)(C)N(C)C)C1)C(=O)N1CCC[C@H](N1)C(=O)OCC(C)(C)C2 [Example A112]	1000 to 10000
								1000 to 10000	1000 to 10000	1000 to 10000	> 10000	1000 to 10000	1000 to 10000	1000 to 10000	1000 to 10000	CCn1c(-c2cccnc2[C@H](C)OC)c2c3cc(ccc31)-c1csc(n1)C[C@H](NC(=O)[C@H](C(C)C)N(C)C(=O)[C@H]1CCN(C)C1)C(=O)N1CCC[C@H](N1)C(=O)OCC(C)(C)C2 [Example A108]	> 10000
								1000 to 10000	1000 to 10000	1000 to 10000	1000 to 10000	100 to 1000	1000 to 10000	100 to 1000	1000 to 10000	CCn1c(-c2cccnc2[C@H](C)OC)c2c3cc(ccc31)-c1cccc(c1)C[C@H](NC(=O)[C@H](C(C)C)N(C)C(=O)[C@H]1CCN(C(=O)CN)C1)C(=O)N1CCC[C@H](N1)C(=O)OCC(C)(C)C2 [Example A105]	> 10000
1000 to 10000	1000 to 10000	1000 to 10000	1000 to 10000	100 to 1000	100 to 1000	100 to 1000	1000 to 10000									CCn1c(-c2cccnc2[C@H](C)OC)c2c3cc(ccc31)-c1cccc(c1)C[C@H](NC(=O)[C@H](C(C)C)N(C)C(=O)[C@H]1CCN(C(=O)CNC)C1)C(=O)N1CCC[C@H](N1)C(=O)OCC(C)(C)C2 [Example A98]	> 10000
								10 to 100	10 to 100	10 to 100	10 to 100	10 to 100	10 to 100	10 to 100	10 to 100	CCn1c(-c2cccnc2[C@H](C)OC)c2c3cc(ccc31)-c1cc(O)cc(c1)C[C@H](NC(=O)[C@H](C(C)C)N(C)C(=O)[C@H]1CCN(C(=O)[C@@]3(C)CCCN3)C1)C(=O)N1CCC[C@H](N1)C(=O)OCC(C)(C)C2 [Example A135]	1000 to 10000

More lines, now with the values behind:

SMILES	IC50 ([2]; KRAS G12D FRET data, IC50) [nM]	IC50 ([3]; KRAS G12S FRET data, IC50) [nM]	IC50 [4, 10] [nM]	IC50 [5, 11] [nM]	IC50 ([6]; KRAS G12C FRET data, IC50) [nM]	IC50 [7, 12] [nM]	IC50 ([8]; KRAS G13C FRET data, IC50) [nM]	IC50 [9, 13] [nM]	IC50 [2, 14] [nM]	IC50 [3, 15] [nM]	IC50 [4, 16] [nM]	IC50 [5, 17] [nM]	IC50 [6, 18] [nM]	IC50 [7, 19] [nM]	IC50 [8, 20] [nM]	IC50 [9, 21] [nM]	IC50 [1] [nM]
CCn1c(-c2cccnc2[C@@H]2CCCO2)c2c3cc(ccc31)-c1csc(n1)C[C@H](NC(=O)[C@H](C(C)C)N(C)C(=O)N1CC(N(C)C)C1)C(=O)N1CCC[C@H](N1)C(=O)OCC(C)(C)C2 (atropisomer, axis not shown) [Example A327]									> 10000	> 10000	> 10000	> 10000	> 10000	> 10000	> 10000	> 10000	1000 to 10000
CCn1c(-c2cccnc2[C@H](C)OC)c2c3cc(ccc31)-c1cc(O)cc(c1)C[C@H](NC(=O)[C@@H]1C[C@H]1C)C(=O)N1CCC[C@H](N1)C(=O)OCC(C)(C)C2 [Example A183]									> 10000	1000 to 10000	1000 to 10000	1000 to 10000	100 to 1000	1000 to 10000	100 to 1000	1000 to 10000	1000 to 10000
C=C[C@@H]1C[C@]1(N)C(=O)N(C)[C@H](C(=O)N[C@H]1Cc2cc(O)cc(c2)-c2ccc3c(c2)c(c(-c2cccnc2[C@H](C)OC)n3CC)CC(C)(C)COC(=O)[C@@H]2CCCN(N2)C1=O)C(C)C [Example A149]									100 to 1000	100 to 1000	10 to 100	100 to 1000	10 to 100	100 to 1000	10 to 100	100 to 1000	1000 to 10000
CCn1c(-c2cnccc2COC)c2c3cc(ccc31)-c1cc(O)cc(c1)C[C@H](NC(=O)[C@H]([C@@H](C)OC)N(C)C(C)=O)C(=O)N1CCC[C@H](N1)C(=O)OCC(C)(C)C2 [Example A76]									1000 to 10000	100 to 1000	100 to 1000	100 to 1000	100 to 1000	100 to 1000	100 to 1000	100 to 1000	1000 to 10000
CCn1c(-c2cccnc2[C@H](C)OC)c2c3cc(ccc31)-c1cc(O)cc(c1)C[C@H](NC(=O)[C@H](C(C)C)N(C)C(=O)C1CC13CCNCC3)C(=O)N1CCC[C@H](N1)C(=O)OCC(C)(C)C2 (stereo partly drawn) [Example A151]									100 to 1000	100 to 1000	10 to 100	100 to 1000	10 to 100	10 to 100	10 to 100	10 to 100	> 10000
CCn1c(-c2cccnc2[C@H](C)OC)c2c3cc(ccc31)-c1cc(O)cc(c1)C[C@H](NS(=O)(=O)c1cnc[nH]1)C(=O)N1CCC[C@H](N1)C(=O)OCC(C)(C)C2 (racemic) [Example A192]									> 10000	> 10000	> 10000	> 10000	> 10000	> 10000	> 10000	> 10000	> 10000
CCn1c(-c2cnccc2COC)c2c3cc(ccc31)-c1cc(O)cc(c1)C[C@H](NC(=O)[C@H](C(C)C)N(C)C(=O)[C@@H]1CN(C(C)=O)C[C@@H]1C(F)(F)F)C(=O)N1CCC[C@H](N1)C(=O)OCC(C)(C)C2 [Example A80]									100 to 1000	100 to 1000	100 to 1000	1000 to 10000	100 to 1000	100 to 1000	100 to 1000	100 to 1000	1000 to 10000
CCn1c(-c2cnccc2COC)c2c3cc(ccc31)-c1cc(O)cc(c1)C[C@H](NC(=O)[C@H](C(C)C)N(C)C(=O)[C@H](C)O)C(=O)N1CCC[C@H](N1)C(=O)OCC(C)(C)C2 [Example A93]	1000 to 10000	100 to 1000	100 to 1000	100 to 1000	100 to 1000	100 to 1000	100 to 1000	100 to 1000									1000 to 10000
CCn1c(-c2cccnc2[C@H](C)OC)c2c3cc(ccc31)-c1cc(O)cc(c1)C[C@H](NC(=O)[C@@H](NC(C)=O)C(C)(C)OC)C(=O)N1CCC[C@H](N1)C(=O)OCC(C)(C)C2 (racemic) [Example A172]									> 10000	> 10000	> 10000	> 10000	> 10000	> 10000	1000 to 10000	> 10000	> 10000
CCn1c(-c2cccnc2[C@H](C)OC)c2c3cc(ccc31)-c1cc(O)cc(c1)C[C@H](NS(=O)(=O)CCN(C)C)C(=O)N1CCC[C@H](N1)C(=O)OCC(C)(C)C2 (racemic) [Example A190]									> 10000	> 10000	> 10000	> 10000	> 10000	> 10000	> 10000	> 10000	> 10000
